The values that follow come from patent publication US20110245242A1, “Heterocyclically Substituted Anilinopyrimides” (Bayer CropScience AG, priority 2008, published 2011).

Format in all cases: physicochemical
Series [1] in a line: log P by LC-MS, method [b], acid range pH 2.7. Conditions: pH 2.7. Here is the method:
The log P values were measured in accordance with EEC Directive 79/831 Annex V.A8 by HPLC (High Performance Liquid Chromatography) on reversed-phase columns (C 18) using the methods below:
[b] The LC-MS determination in the acid range was carried out at pH 2.7 using the mobile phases 0.1% aqueous formic acid and acetonitrile (contains 0.1% formic acid)
linear gradient from 10% acetonitrile to 95% acetonitrile.

The nature of another series: physchem. To be noted: pH 7.8. The method, then: The log P values were measured in accordance with EEC Directive 79/831 Annex V.A8 by HPLC (High Performance Liquid Chromatography) on reversed-phase columns (C 18) using the methods below: [c] The LC-MS determination in the neutral range was carried out at pH 7.8 using the mobile phases 0.001 molar aqueous ammonium bicarbonate solution and acetonitrile linear gradient from 10% acetonitrile to 95% acetonitrile.

Series [2] in a line: log P by HPLC on reversed-phase columns (C 18), method [a], acidic range pH 2.3. To be noted: pH 2.3. Here is the method: The log P values were measured in accordance with EEC Directive 79/831 Annex V.A8 by HPLC (High Performance Liquid Chromatography) on reversed-phase columns (C 18) using the methods below: [a] The determination was carried out in the acidic range at pH 2.3 using the mobile phases 0.1% aqueous phosphoric acid and acetronitrile linear gradient from 10% acetonitrile to 95% acetronitrile.

With `CC1CC1Nc1nc(Nc2cccc(N3C(=O)OC[C@H]3C(C)C)c2)ncc1Cl` (some centres unmarked) [Example 216], the log p in series [1] is 2.43[b]; in “physchem” it was 3.46[c];.

In the case of `C[C@H]1CCN(c2cccc(Nc3ncc(Cl)c(NC4CC4)n3)c2)C1=O` [Example 124], the log p is 2.86[b] in series [1] and 2.86[a]; in series [2]. For `C[C@H]1COC(=O)N1c1cccc(Nc2ncc(Cl)c(N3CCC3)n2)c1` [Example 230], the values for the log p (in series [1]; in the series “physchem”) were 1.58[b] and 2.75[c];, respectively. For `CC1(Nc2nc(Nc3cccc(N4CCCC4=O)c3)ncc2C(F)(F)F)CC1` [Example 252], the log p in series [1] is 2.44[b]; in “physchem”, 2.95[c];.

As for `CC1CC1Nc1nc(Nc2cccc(N3CCOC3=O)c2)ncc1Br` (centres unmarked) [Example 227], the log p in series [1] is 1.77[b]; in the series “physchem”, 2.79[c];. In the same order, the values of `CC1CC(Nc2nc(Nc3cccc(N4C(=O)CC(C)(C)C4=O)c3)ncc2Br)C1` (centres unmarked) [Example 257] are 2.58[b] and 3.66[c];. On to `CC1CN(c2cccc(Nc3ncc(Cl)c(NC4CC4)n3)c2)C(=O)O1` (centres unmarked) [Example 264], for which the log p in series [1] was 1.65[b]; in the series “physchem”, 2.56[c];.

On to `COC(=O)N(c1cccc(N2CCCC2=O)c1)c1ncc(C(F)(F)F)c(NC2CC2)n1` [Example 309], for which the log p was 2.25[b] in series [1] and 2.37[c]; in “physchem”. Consider `COCC(C)Nc1nc(Nc2ccc(N3CCCC3=O)cc2)ncc1Cl` (centres unmarked) [Example 1], for which the log p was 1.51[b] in series [1] and 1.51[a]; in series [2].

In the case of `CC1CC1Nc1nc(Nc2cccc(N3C(=O)CC(C)(C)C3=O)c2)ncc1Cl` (centres unmarked) [Example 246], the values for the log p (in series [1]; in the series “physchem”) were 2.09[b] and 2.92[c];, respectively. On to `O=C1CCCN1c1cccc(Nc2ncc(C(F)(F)F)c(NCC(F)(F)F)n2)c1` [Example 306], for which the log p is 2.6[b] in series [1] and 2.66[c]; in the series “physchem”.

As to `CN(c1cccc(N2CCCC2=O)c1)c1ncc(Cl)c(N(C)C2CC2)n1` [Example 325], the values for the log p (in series [1]; in the series “physchem”) were 1.98[b] and 3.66[c];, respectively. On to `CC1CC(=O)N(c2cccc(Nc3ncc(Cl)c(NC4CCC4)n3)c2)C1=O` (centres unmarked) [Example 188], for which the figures for the log p (in series [1]; in “physchem”) were 1.76[b] and 2.67[c];, respectively. In the case of `O=C1CCCN1c1cccc(Nc2ncc(Cl)c(N3CCCCC3)n2)c1` [Example 225], the log p is 2.57[b] in series [1] and 3.53[c]; in “physchem”. In the case of `O=C1CCCN1c1cccc(Nc2ncc(C(F)(F)F)c(NCC(F)F)n2)c1` [Example 311], the log p is 2.38[b] in series [1] and 2.52[c]; in “physchem”. In the same order, the values of `CC(C)C1COC(=O)N1c1cccc(Nc2ncc(Br)c(NC3CCC3)n2)c1` (centres unmarked) [Example 248] are 2.54[b] and 3.71[c];. Consider `CCC1CCC(=O)N1c1cccc(Nc2ncc(Cl)c(NC3CC3)n2)c1` (centres unmarked) [Example 294], for which the log p was 1.87[b] in series [1] and 2.74[c]; in the series “physchem”. As for `Cc1ccc(Nc2ncc(C(F)(F)F)c(NC3CC3)n2)cc1N1CCCC1=O` [Example 316], the log p in series [1] is 2.16[b]; in the series “physchem”, 2.62[c];. In the case of `CC(C)C1COC(=O)N1c1cccc(Nc2ncc(C(F)(F)F)c(NC3CCC3)n2)c1` (centres unmarked) [Example 263], the values for the log p (in series [1]; in “physchem”) were 3.47[b] and 3.85[c];, respectively. On to `CC1CN(c2cccc(Nc3ncc(Br)c(NC4CCC4)n3)c2)C(=O)O1` (centres unmarked) [Example 287], for which the figures for the log p (in series [1]; in “physchem”) were 2.04[b] and 3.17[c];, respectively.

Turning to `CC1CC(Nc2nc(Nc3cccc(N4C(=O)CC(C)C4=O)c3)ncc2Cl)C1` (centres unmarked) [Example 333], the log p in series [1] is 2.09[b]; in the series “physchem”, 3.09[c];. For `CCC1CC(C)C(=O)N1c1cccc(Nc2ncc(Br)c(NC(C)C)n2)c1` (centres unmarked) [Example 210] the same measures were 2.36[b] and 3.7[c];. For `Cc1cc(Nc2ncc(C(F)(F)F)c(NC3CC3)n2)cc(N2CCCC2=O)c1` [Example 310] the same measures were 2.51[b] and 2.98[c];. In the same order, the values of `O=C1CCCN1c1cccc(Nc2ncc(C(F)(F)F)c(N3CCCC3)n2)c1` [Example 301] are 2.45[b] and 3.24[c];.

For the compound `CC1CC(Nc2nc(Nc3cccc(N4C(=O)CCC4C)c3)ncc2Cl)C1` (centres unmarked) [Example 253], the log p in series [1] was 2.15[b]; in the series “physchem”, 3.16[c];. For `CC(C)Nc1nc(Nc2cccc(N3CCCC3=O)c2)ncc1C(F)(F)F` [Example 297], the log p is 2.35[b] in series [1] and 3[c]; in “physchem”. Turning to `CC(C)Nc1nc(Nc2ccc(F)c(N3CCCC3=O)c2)ncc1Cl` [Example 197], the log p in series [1] was 1.55[b]; in “physchem”, 2.55[c];. Consider `CC1CC1Nc1nc(Nc2cccc(N3C(=O)OCC3C)c2)ncc1Br` (centres unmarked) [Example 239], for which the log p in series [1] is 1.83[b]; in the series “physchem”, 2.9[c];.

On to `C[C@@H]1CCN(c2cccc(Nc3ncc(Cl)c(NC4CC4)n3)c2)C1=O` [Example 123], for which the log p in series [1] is 2.86[b]; in series [2] it was 2.86[a];. Regarding `CC(C)C1COC(=O)N1c1cccc(Nc2ncc(Br)c(NC3CC3)n2)c1` (centres unmarked) [Example 250], the results for the log p (in series [1]; in the series “physchem”) were 2.22[b] and 3.18[c];, respectively. `CC1CC1Nc1nc(Nc2cccc(N3CCCCC3=O)c2)ncc1Cl` (centres unmarked) [Example 213]: the log p in series [1] is 1.7[b]; in “physchem” it was 2.48[c];. Take `CC(C)Nc1nc(Nc2cccc(N3C(=O)OCC3C)c2)ncc1Br` (centres unmarked) [Example 262]: the log p in “physchem” is 2.83[c];. As for `CC1CC(Nc2nc(Nc3cccc(N4C(=O)CC(C)(C)C4=O)c3)ncc2Cl)C1` (centres unmarked) [Example 259], the values for the log p (in series [1]; in the series “physchem”) were 2.43[b] and 3.22[c];, respectively. As to `CSCC(C)(C)Nc1nc(Nc2ccc(N3CCOC3=O)cc2)ncc1Cl` [Example 40], the log p in the series “physchem” is 3.09[c]. Still for that read-out and setting: the value for `CCOC(=O)[C@@H]1CCC(=O)N1c1cccc(Nc2ncc(Br)c(NC3CC3)n2)c1` [Example 191] was 2.65[c]. As to `CC1CCN(c2cccc(Nc3ncc(Cl)c(N(C)C4CC4)n3)c2)C1=O` (centres unmarked) [Example 186], the results for the log p (in series [1]; in the series “physchem”) were 2.66[b] and 3.48[c];, respectively. Consider `CC1CC1Nc1nc(Nc2cccc(N3CCCCC3=O)c2)ncc1Br` (centres unmarked) [Example 223], for which the log p is 1.81[b] in series [1] and 2.67[c]; in “physchem”.

Take `CC1CC(=O)N(c2cccc(Nc3ncc(C(F)(F)F)c(NC4CC4)n3)c2)C1=O` (centres unmarked) [Example 244]: the log p in series [1] is 2.29[b]; in “physchem”, 2.53[c];.

Regarding `O=C1CCC(C(F)(F)F)N1c1cccc(Nc2ncc(Br)c(NC3CCC3)n2)c1` (centres unmarked) [Example 258], the log p in series [1] is 2.3[b]; in “physchem” it was 3.24[c];. In the same order, the values of `O=C1CCCN1c1cccc(Nc2ncc(Cl)c(N3CCOCC3)n2)c1` [Example 226] are 1.98[b] and 2.29[c];. On to `CC1CC1Nc1nc(Nc2cccc(N3C(=O)CC(C)(C)C3=O)c2)ncc1Br` (centres unmarked) [Example 295], for which the log p is 2.2[b] in series [1] and 3.11[c]; in “physchem”. For the compound `O=C1CCCN1c1cccc(Nc2ncc(Cl)c(N3CCSCC3)n2)c1` [Example 228], the values for the log p (in series [1]; in “physchem”) were 2.63[b] and 3.01[c];, respectively. In the same order, the values of `Cc1ccc(Nc2ncc(Cl)c(NC3CC3)n2)cc1N1CCCC1=O` [Example 305] are 1.44[b] and 2.32[c];. On to `CC1CCN(c2cccc(Nc3ncc(Cl)c(NC4CC4C)n3)c2)C1=O` (centres unmarked) [Example 241], for which the log p in series [1] was 2.06[b]; in the series “physchem”, 3.17[c];.

Turning to `CC(C)Nc1nc(Nc2cccc(N3CCC(C)C3=O)c2)ncc1Cl` (centres unmarked) [Example 185], the log p in series [1] was 1.82[b]; in “physchem”, 3.07[c];. Consider `CC1CCC(=O)N1c1cccc(Nc2ncc(Cl)c(NC3CC3)n2)c1` (centres unmarked) [Example 125], for which the log p is 2.59[b] in series [1] and 2.59[a]; in series [2]. For the compound `CC1CC(Nc2nc(Nc3cccc(N4CCCC4=O)c3)ncc2Cl)C1` (centres unmarked) [Example 299], the log p in series [1] is 3.25[b]; in the series “physchem” it was 3.26[c];. As for `CC1CC(Nc2nc(Nc3cccc(N4CCOC4=O)c3)ncc2Cl)C1` (centres unmarked) [Example 256], the log p in “physchem” was 2.99[c]. In the case of `O=C1CCC(=O)N1Cc1cccc(Nc2ncc(Cl)c(NC3CC3)n2)c1` [Example 235], the log p in “physchem” was 2.32[c];. Regarding `CC1CCC(=O)N1c1cccc(Nc2ncc(Cl)c(NC3CC3)n2)c1` (centres unmarked) [Example 30], the values for the log p in series [1] and in series [2] were 1.6[b] and 1.6[a];, respectively. Take `COCC(C)Nc1nc(Nc2cccc(N3C(=O)OCC3C)c2)ncc1Cl` (centres unmarked) [Example 118]: the values for the log p in series [1] and in series [2] were 1.6[b] and 1.6[a];, respectively. Turning to `CC1COC(=O)N1c1cccc(Nc2ncc(C(F)(F)F)c(NC3CC3)n2)c1` (centres unmarked) [Example 261], the log p in “physchem” was 2.7[c];. As for `CC1CCC(=O)N1c1cccc(Nc2ncc(Cl)c(NC3CC3)n2)c1` (centres unmarked) [Example 126], the log p was 2.59[b] in series [1] and 2.59[a]; in series [2]. `COc1ccc(Nc2ncc(Cl)c(NC3CC3)n2)cc1N1CCCC1=O` [Example 328]: in “physchem”, the log p was 2.18[c];.
